Measurements reported in the NIST ThermoML archive (doi:10.1016/j.jct.2014.01.012).

Assays:
[1] = refractive index (Na D-line) (dimensionless); settings: 101.33 kPa, Liquid
[2] = 101.33 kPa, Liquid
[3] = xn = mol fraction of the nth substance listed; settings: 101 kPa, Liquid, x2 = 0
[4] = refractive index (Na D-line) (dimensionless); xn = mol fraction of the nth substance listed; settings: 101 kPa, Liquid, x2 = 0

CCCCCCn1cc[n+](C)c1.F[P-](F)(F)(F)(F)F [1-hexyl-3-methylimidazolium hexafluorophosphate]
Settings | mass density, Vibrating tube method [kg/m3] | refractive index, Standard Abbe refractometry | speed of sound, Sing-around technique in a fixed-path interferometer [m/s]
[1], 293.15 K | – | 1.42064 | –
[1], 298.15 K | – | 1.41935 | –
[1], 303.15 K | – | 1.41806 | –
[1], 308.15 K | – | 1.41676 | –
[1], 313.15 K | – | 1.41547 | –
[1], 318.15 K | – | 1.41417 | –
[1], 323.15 K | – | 1.41288 | –
[2], 293.15 K | 1291.38 | – | 1436.9
[2], 298.15 K | 1287.34 | – | 1423.5
[2], 303.15 K | 1283.29 | – | 1410.6
[2], 308.15 K | 1279.4 | – | 1398.2
[2], 313.15 K | 1275.48 | – | 1386
[2], 318.15 K | 1271.56 | – | 1374.2
[2], 323.15 K | 1267.63 | – | 1362.5

CCCCCCCC[n+]1ccn(C)c1.F[P-](F)(F)(F)(F)F [1-octyl-3-methylimidazolium hexafluorophosphate]
Settings | mass density, [2] [kg/m3] | refractive index, [1] | speed of sound, [2] [m/s]
293.15 K | 1222.81 | 1.42649 | 1388.2
298.15 K | 1218.9 | 1.42512 | 1373.4
303.15 K | 1214.96 | 1.42376 | 1359.3
308.15 K | 1211.13 | 1.4224 | 1345.8
313.15 K | 1207.33 | 1.42103 | 1332.7
318.15 K | 1203.5 | 1.41967 | 1320.1
323.15 K | 1199.67 | 1.41831 | 1307.7

CCCCOC(C)=O [butyl ethanoate]
Settings | mass density, Vibrating tube method [kg/m3] | refractive index, Standard Abbe refractometry | speed of sound, Sing-around technique in a fixed-path interferometer [m/s]
[1], 293.15 K | – | 1.39428 | –
[1], 298.15 K | – | 1.39188 | –
[1], 303.15 K | – | 1.38948 | –
[1], 308.15 K | – | 1.3871 | –
[1], 313.15 K | – | 1.38469 | –
[1], 318.15 K | – | 1.38227 | –
[1], 323.15 K | – | 1.37984 | –
[2], 293.15 K | 881.134 | – | 1211.3
[2], 298.15 K | 876.004 | – | 1190.5
[2], 303.15 K | 870.855 | – | 1169.8
[2], 308.15 K | 865.685 | – | 1149.2
[2], 313.15 K | 860.492 | – | 1128.8
[2], 318.15 K | 855.275 | – | 1108.5
[2], 323.15 K | 850.032 | – | 1088.3

CCCCOC(C)=O [butyl ethanoate] + CCCCCCCC[n+]1ccn(C)c1.F[P-](F)(F)(F)(F)F
Settings | mass density, [3] [kg/m3] | refractive index, [4] | speed of sound, [3] [m/s]
293.15 K | 881.134 | 1.39428 | 1211.3
298.15 K | 876.004 | 1.39188 | 1190.5
303.15 K | 870.855 | 1.38948 | 1169.8
308.15 K | 865.685 | 1.3871 | 1149.2
313.15 K | 860.492 | 1.38469 | 1128.8
318.15 K | 855.275 | 1.38227 | 1108.5
323.15 K | 850.032 | 1.37984 | 1088.3

CCCCOC(C)=O [butyl ethanoate] + CCCCCCn1cc[n+](C)c1.F[P-](F)(F)(F)(F)F
Settings | mass density, Vibrating tube method [kg/m3] | refractive index, Standard Abbe refractometry | speed of sound, Sing-around technique in a fixed-path interferometer [m/s]
[3], 293.15 K | 881.134 | – | 1211.3
[3], 298.15 K | 876.004 | – | 1190.5
[3], 303.15 K | 870.855 | – | 1169.8
[3], 308.15 K | 865.685 | – | 1149.2
[3], 313.15 K | 860.492 | – | 1128.8
[3], 318.15 K | 855.275 | – | 1108.5
[3], 323.15 K | 850.032 | – | 1088.3
[4], 293.15 K | – | 1.39428 | –
[4], 298.15 K | – | 1.39188 | –
[4], 303.15 K | – | 1.38948 | –
[4], 308.15 K | – | 1.3871 | –
[4], 313.15 K | – | 1.38469 | –
[4], 318.15 K | – | 1.38227 | –
[4], 323.15 K | – | 1.37984 | –

CCOC(C)=O [ethyl acetate]
Settings | mass density, Vibrating tube method [kg/m3] | refractive index, Standard Abbe refractometry | speed of sound, Sing-around technique in a fixed-path interferometer [m/s]
[1], 293.15 K | – | 1.37237 | –
[1], 298.15 K | – | 1.36982 | –
[1], 303.15 K | – | 1.36727 | –
[1], 308.15 K | – | 1.36473 | –
[1], 313.15 K | – | 1.36219 | –
[1], 318.15 K | – | 1.35968 | –
[1], 323.15 K | – | 1.35732 | –
[2], 293.15 K | 900.573 | – | 1162.4
[2], 298.15 K | 894.473 | – | 1139.8
[2], 303.15 K | 888.347 | – | 1117.2
[2], 308.15 K | 882.172 | – | 1094.7
[2], 313.15 K | 875.951 | – | 1072.4
[2], 318.15 K | 869.681 | – | 1050.1
[2], 323.15 K | 863.358 | – | 1028

CCOC(C)=O [ethyl acetate] + CCCCCCCC[n+]1ccn(C)c1.F[P-](F)(F)(F)(F)F
Settings | mass density, [3] [kg/m3] | refractive index, [4] | speed of sound, [3] [m/s]
293.15 K | 900.573 | 1.37237 | 1162.4
298.15 K | 894.473 | 1.36982 | 1139.8
303.15 K | 888.347 | 1.36727 | 1117.2
308.15 K | 882.172 | 1.36473 | 1094.7
313.15 K | 875.951 | 1.36219 | 1072.4
318.15 K | 869.681 | 1.35968 | 1050.1
323.15 K | 863.358 | 1.35732 | 1028

CCOC(C)=O [ethyl acetate] + CCCCCCn1cc[n+](C)c1.F[P-](F)(F)(F)(F)F
[3]
Settings | mass density, Vibrating tube method [kg/m3] | speed of sound, Sing-around technique in a fixed-path interferometer [m/s]
293.15 K | 900.573 | 1162.4
298.15 K | 894.473 | 1139.8
303.15 K | 888.347 | 1117.2
308.15 K | 882.172 | 1094.7
313.15 K | 875.951 | 1072.4
318.15 K | 869.681 | 1050.1
323.15 K | 863.358 | 1028

[4]
Settings | refractive index
293.15 K | 1.37237
298.15 K | 1.36982
303.15 K | 1.36727
308.15 K | 1.36473
313.15 K | 1.36219
318.15 K | 1.35968
323.15 K | 1.35732
